According to US20040248232A1, “Method for treating Alzheimer's dementia” (priority 2003, published 2004):
Entries after “also recorded” stand apart in the source; their conditions may differ. Non-standard residues stand in square brackets, D forms with d. Residues, ends and D or L forms follow the SMILES beside them. *: point of attachment. Sta = CC(C)C[C@H](N)[C@@H](O)CC(=O)O; Isovaleryl = CC(C)CC(=O)*

Experiments:
[1] = system: β-secretase endoprotease activity in chromaffin vesicle lysate; experiment: Protease inhibitors of β-secretase endoprotease activity in chromaffin vesicle lysate (Z*Val-Lys-Met-MCA cleavage, AMC fluorescence); format: biochemical, bovine; conditions: for % CONTROL: pH 5.5, with aminopeptidase M, activity as % of activity without inhibitor; for inhibition of β-secretase endoprotease activity in chromaffin vesicle lysate, in words: text summary of Table II
Protocol: (§1) The β-secretase endoprotease activity was identified by incubating the chromaffin vesicle lysate (2-10 μl of 10-20 mg protein/ml) with the Z★Val-Lys-Met-MCA substrate (100 μM final concentration) and detecting AMC fluorescence. The chromaffin vesicle lysate was prepared as described in Example I. The endoprotease activity was determined as a function of pH by varying the pH of the incubation solution between 3.0 to 8.0 in 0.5 pH increments. Citric acid, sodium phosphate, and Tris-HCl buffers (100 mM final concentration) were used to adjust the pH of the incubation solutions between 3.0 to 5.5, 6.0 to 7.5, and 8.0, respectively. Duplicate samples at each pH increment (100 μl each) were distributed among 22 wells in a covered microtiter well plate and incubated at 37° C. for 8 hours in a water bath.
As discussed above, endoprotease cleavage between the Met-MCA bond in the Z★Val-Lys-Met-MCA substrate produces fluorescent AMC, but endoprotease cleavage between the Lys-Met or Val-Lys bonds in that substrate produces non-fluorescent Lys-Met-MCA and Met-MCA peptides. To insure that the latter two endoprotease cleavages were detected, aminopeptidase M (20 μg/ml final concentration, BOEHRINGER […]) was added to each incubation solutions to produce fluorescent AMC from the Lys-Met-MCA and Met-MCA peptides. Prior to adding the aminopeptidase M, each incubation solution was adjusted to a pH 8.3 using Tris-HCl because aminopeptidase M functions at a basic pH. A second incubation at 37° C. for 1 hour in the water bath was conducted to complete the aminopeptidase M reaction.
Upon termination of that second incubation, AMC fluorescence was assayed using a fluorometer (IDEXX fluorometer, FCA Fluorescence Concentration Analyzer, cat. no. 10-105-2, BAXTER HEALTH CARE CORP., Mundelein, Ill.) at excitation and emission wavelengths of 365 and 450 nm, respectively. Standard AMC concentrations were also measured to quantitate relative fluorescence with the molar amount (pmol) of AMC generated by the secretase. The resulting AMC fluorescence reflects the endoprotease activity in cleaving either the Met-MCA, Lys-Met. and Val-Lys bonds in the Z★Val-Lys-Met-MCA substrate.
(§2) The effect of the reducing agent dithiothreitol (DTT) on β-secretase endoprotease activity was determined using the assay described in Example III. Briefly, the lysed vesicles were incubated with the substrate Z★Val-Lys-Met-MCA in the presence or absence of 1 mM DTT and the resulting fluorescence plotted as a function of pH. Both with and without DTT, β-secretase endoprotease activity was detected and in both cases that activity had pH optimum of about 4.0 to 6.0, which is consistent with the intravesicular pH of chromaffin vesicles.
The effect of the aminopeptidase M and the basic pH buffer used in the β-secretase endoprotease activity assay was determined. The assay was conducted as described in Example VIII with DTT. Three assays were conducted, one with aminopeptidase M in its basic pH buffer, another with the basic pH buffer but not aminopeptidase M, and a third without either the buffer or the aminopeptidase M. Briefly, the chromaffin vesicle lysate and the substrate Z★Val-Lys-Met-MCA were incubated for 30 minutes-at a specified pH and the resulting fluorescence measured. The aminopeptidase M in the basic pH buffer or:.that buffer alone (final concentration of 75 mM Tris-HCl pH 8.2) was added to the assay and incubated an additional 60 minutes at 37° C. […] The assay conducted with aminopeptidase M and its basic pH buffer and that of the control assay having just the basic pH buffer produced approximately the same amount of fluorescence.
The effect of various protease inhibitors on β-secretase endoprotease activity in the lysate was determined at the pH optimum 5.5 in the assay described in Example IX containing aminopeptidase M. Protease inhibitors specific for various protease classes were used. […]

[2] = target: T1, Peak I β-secretase endoprotease activity (cathepsin L) (Bos taurus, UniProt P25975); experiment: Protease inhibitors of β-secretase endoprotease activity in Peak I; format: biochemical, bovine; conditions: for inhibition of Peak I activity, in words: text summary of Table IV; for Peak I (%): % of control (no inhibitor); for β-secretase activity of Peak I: inhibitor at 1 μM (Example XVI)
T1 construct: from tissue; host or cells: bovine adrenal medulla chromaffin vesicles; Con A then Sephacryl S200, Peak I
T1 sequence (P25975 118-334): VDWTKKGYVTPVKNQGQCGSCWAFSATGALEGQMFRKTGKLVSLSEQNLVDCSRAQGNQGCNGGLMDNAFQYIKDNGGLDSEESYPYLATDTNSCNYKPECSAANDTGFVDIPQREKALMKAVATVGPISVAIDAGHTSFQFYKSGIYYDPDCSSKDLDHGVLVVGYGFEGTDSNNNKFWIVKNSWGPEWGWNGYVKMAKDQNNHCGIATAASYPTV
Protocol: The effect of the aminopeptidase M and the basic pH buffer used in the β-secretase endoprotease activity assay was determined. […] Three assays were conducted, one with aminopeptidase M in its basic pH buffer, another with the basic pH buffer but not aminopeptidase M, and a third without either the buffer or the aminopeptidase M. Briefly, the chromaffin vesicle lysate and the substrate Z★Val-Lys-Met-MCA were incubated for 30 minutes-at a specified pH and the resulting fluorescence measured. The aminopeptidase M in the basic pH buffer or:.that buffer alone (final concentration of 75 mM Tris-HCl pH 8.2) was added to the assay and incubated an additional 60 minutes at 37° C.
The protease inhibitor was added to each assay at the start of the reaction at the appropriate concentration. The extent of inhibition was expressed as a percentage of the activity without the inhibitor (control).

[3] = target: T2, Peak II β-secretase endoprotease activity (cathepsin B) (Bos taurus, UniProt P07688); experiment: Protease inhibitors of β-secretase endoprotease activity in Peak II; format: biochemical, bovine; conditions: for inhibition of Peak II activity, in words: text summary of Table IV; for Peak II (%): % of control (no inhibitor)
T2 construct: from tissue; host or cells: bovine adrenal medulla chromaffin vesicles; Con A, Sephacryl S200 (Peak II), Mono Q (II-A, II-B)

[4] = system: primary chromaffin cell cultures; experiment: Aβ-peptide secretion by chromaffin cells (RIA of Aβ1-40 in media); format: cell-based; conditions: 50 mM, 15 minutes
Protocol: Primary chromaffin cell cultures containing approximately 2 million cells in each culture were produced using established methods (Hook et al., ibid.; and Tezapsidis et al., ibid.). Exocytosis of the contents of the vesicles in such cells was induced by exposing the cells to KCl (50 mM) or nicotine (10 μM) for 15 minutes.

[5] = system: β-secretase endoprotease activity in chromaffin vesicle lysate; experiment: Effect of reducing agents on β-secretase endoprotease activity in chromaffin vesicles; format: biochemical, bovine; conditions: 1 mM; lysed vesicles, Z*Val-Lys-Met-MCA
Protocol: as §1, §2

[6] = system: 27 kDa and 31 kDa cysteine protease bands of Peak I; experiment: 125I-DCG-04 affinity labeling of Peak I; format: binding, bovine; conditions: inhibitor 1 μM
Protocol: An aliquot of Peak I was incubated at room temperature with 125I-DCG-04 for 30 minutes, and the affinity labeled β-secretase was then subjected to one-dimensional SDS-PAGE followed by electrophoretic transfer of proteins to nitrocellulose membranes, and 125I-DCG-04 labeled proteins were detected with streptavidin-HRP, as described previously (Greenbaum et al. Chem. Biol. 7:569-81, 2000, Greenbaum et al., Chemistry and Biology 10, 1085-1094, 2002; Greenbaum et al., Mol. Cell. Proteomics, 1:60-68, 2002).
The 31 kDa band resembles the molecular weight of the cysteine protease cathepsin B (Barrett et al., “Handbook of Proteolytic Enzymes,” Pub. Academic Press, SanDiego, pp 609-617, 1998; and Greenbaum et al., Mol. Cell. Proteomics, 1:60-68, 2002). The selective cathepsin B inhibitor, CA-074, was used to determine whether the 27 kDa or 31 kDa bands were responsible for the β-secretase activity of Peak I (Yamamoto et al., J. Mol. Biol. 227:942-944, 1992; Gour-Salin et al., J. Med. Chem. 36:720-725, 1993; Bogyo et al., Chem Biol. 1:27-38, 2000).

[7] = system: cathepsin activity in brain; conditions: administered to animals; cited from earlier work

SMILES: O=S(=O)(F)Cc1ccccc1 [PMSF, phenylmethylsulfonyl fluoride]
- % CONTROL ([1]; inhibitor 100 μM): 58%
- inhibition of β-secretase endoprotease activity in chromaffin vesicle lysate, in words [1]: significantly inhibited
- inhibition of Peak I activity, in words [2]: did not significantly inhibit; also recorded: only slightly inhibited
- inhibition of Peak II activity, in words [3]: did not significantly inhibit; also recorded: only slightly inhibited

SMILES: [Cl-].[K+] [KCl, potassium chloride]
- increase in the concentration of Aβ1-40 peptide in the media relative to control media [4]: approximately 350 fold

SMILES: CC(C)CC(=O)N[C@H](C(=O)N[C@H](C(=O)N[C@@H](CC(C)C)[C@@H](O)CC(=O)N[C@@H](C)C(=O)N[C@@H](CC(C)C)[C@@H](O)CC(=O)O)C(C)C)C(C)C [Pepstatin A] (Isovaleryl-VV[Sta]A[Sta]-OH)
- % CONTROL ([1]; inhibitor 10 μM): 78%
- inhibition of β-secretase endoprotease activity in chromaffin vesicle lysate, in words [1]: slightly inhibited
- Peak I (%) ([2]; inhibitor 100 μM): 85%
- inhibition of Peak I activity, in words [2]: did not significantly inhibit; also recorded: slightly inhibited
- Peak II (%) ([3]; inhibitor 100 μM): 132%
- inhibition of Peak II activity, in words [3]: did not significantly inhibit; also recorded: increased the activity

SMILES: O[C@H](CS)[C@H](O)CS (racemic) [DTT, dithiothreitol]
- increase in the β-secretase endoprotease activity [5]: approximately 5 fold

SMILES: O=C(O)CN(CCOCCOCCN(CC(=O)O)CC(=O)O)CC(=O)O [EGTA]
- % CONTROL ([1]; inhibitor 1 mM): 99%
- Peak I (%) ([2]; inhibitor 1 mM): 108%
- Peak II (%) ([3]; inhibitor 1 mM): 142%

SMILES: O=C(O)c1cc[c]([Hg][OH])cc1 [pHMB]
- % CONTROL ([1]; inhibitor 1 mM): 35%
- inhibition of β-secretase endoprotease activity in chromaffin vesicle lysate, in words [1]: inhibited
- inhibition of β-secretase endoprotease activity in chromaffin vesicle lysate, in words ([1]; listed as PHMB): greatly inhibited
- Peak I (%) ([2]; inhibitor 1 mM): 67%
- inhibition of Peak I activity, in words [2]: slightly inhibited; also recorded: inhibited
- Peak II (%) ([3]; inhibitor 1 mM): 68%
- inhibition of Peak II activity, in words [3]: slightly inhibited; also recorded: inhibited

SMILES: CCCNC(=O)[C@H]1O[C@@H]1C(=O)N[C@H](C(=O)N1CCC[C@H]1C(=O)O)[C@@H](C)CC [CA-074]
- β-secretase activity of Peak I [2]: not affected
- 125I-DCG-04 labeling of Peak I bands in the presence of the inhibitor [6]: labeling of only the 27 kDa band

SMILES: c1cnc2c(c1)ccc1cccnc12 [1,10 Phenanthroline]
- Peak I (%) ([2]; inhibitor 500 μM): 31%
- inhibition of Peak I activity, in words [2]: significantly inhibited
- Peak II (%) ([3]; inhibitor 500 μM): 72%
- inhibition of Peak II activity, in words [3]: only slightly inhibited

SMILES: CC(C)CCNC(=O)[C@H](CC(C)C)NC(=O)[C@H]1O[C@@H]1C(=O)O [E64c]
- % CONTROL ([1]; inhibitor 10 μM): 0%
- inhibition of β-secretase endoprotease activity in chromaffin vesicle lysate, in words [1]: completely inhibited
- Peak I (%) ([2]; inhibitor 10 μM): 0%
- β-secretase activity of Peak I [2]: completed inhibited
- inhibition of Peak I activity, in words [2]: maximally inhibited; also recorded: completely inhibited
- Peak II (%) ([3]; inhibitor 10 μM): 0%
- inhibition of Peak II activity, in words [3]: maximally inhibited; also recorded: completely inhibited
- cathepsin activity in brain [7]: effectively block

SMILES: O=C(O)CN(CCN(CC(=O)O)CC(=O)O)CC(=O)O [EDTA, ethylenediaminetetraacetic acid]
- % CONTROL ([1]; inhibitor 1 mM): 100%
- Peak I (%) ([2]; inhibitor 1 mM): 99%
- Peak II (%) ([3]; inhibitor 1 mM): 138%

SMILES: CC(=O)N[C@@H](CC(C)C)C(=O)N[C@@H](CC(C)C)C(=O)N[C@H](C=O)CCCNC(=N)N [Leupeptin]
- % CONTROL ([1]; inhibitor 100 μM): 0%
- inhibition of β-secretase endoprotease activity in chromaffin vesicle lysate, in words [1]: completely inhibited
- Peak I (%) ([2]; inhibitor 100 μM): 0%
- inhibition of Peak I activity, in words [2]: maximally inhibited; also recorded: completely inhibited
- Peak II (%) ([3]; inhibitor 100 μM): 0%
- inhibition of Peak II activity, in words [3]: maximally inhibited; also recorded: completely inhibited

SMILES: CC(C)C[C@H](NC(=O)[C@@H](NC(=O)N[C@@H](Cc1ccccc1)C(=O)O)[C@@H]1CCN=C(N)N1)C(=O)N[C@H](C=O)Cc1ccccc1 [Chymostatin]
- % CONTROL ([1]; inhibitor 10 μM): 11%
- inhibition of β-secretase endoprotease activity in chromaffin vesicle lysate, in words [1]: greatly inhibited
- Peak I (%) ([2]; inhibitor 10 μM): 0%
- inhibition of Peak I activity, in words [2]: maximally inhibited
- Peak II (%) ([3]; inhibitor 10 μM): 35%
- inhibition of Peak II activity, in words [3]: maximally inhibited
